Target: PHGDH (Homo sapiens (Human), UniProt O43175)
Experiment: 3-Phosphoglycerate Dehydrogenase (PHGDH) Fluorescence Intensity Assay, run at two NAD/3-PG ratios: PHGDH_HIGH_NAD/3-PG (250 μM NAD/500 μM 3-PG) and PHGDH_500_NAD/3-PG (500 μM NAD/500 μM 3-PG)
Assay type: biochemical
Settings: 250 μM NAD/500 μM 3-PG; read-out: IC50 (PHGDH_HIGH_NAD/3-PG)
From the text: This assay is used to identify compounds which inhibit the enzymatic activity of PHGDH which catalyzes the reaction of 3-Phosphoglycerate (3-PG) and NAD to 3-Phosphohydroxypyruvate and NADH.
The produced NADH is used in a coupled reaction for Diaphorase mediated reduction of Resazurin to Resorufin which can be measured in a Fluorescence Intensity readout.
The full length version of PHGDH enzyme was expressed in E. coli with an N-terminal HIS-tag and a TEV cleavage site.
The 3-Phosphoglycerate substrate was purchased from Sigma. NAD, Diaphorase and Resazurin were purchased from Sigma Aldrich.
Compounds are dispensed onto assay plates (black, low volume, flat bottom 384 well, Corning) using an Access Labcyte Workstation with the Labcyte Echo 55× from a DMSO solution. For the chosen highest assay concentration of 100 μM, 150 nl of compound solution are transferred from a 10 mM DMSO compound stock solution. A series of 11 concentrations (10 1:5 steps) is transferred for each compound.
The assay has been performed at two different NAD/3-PG ratios (final assay concentrations):
Plates are kept at room temperature. After 240 minutes incubation time the fluorescence signal is measured in a PerkinElmer Envision HTS Multilabel Reader with an excitation wavelength at 530-560 nm and an emission wavelength at 590 nm.
Each plate contains negative controls (diluted DMSO instead of test compound; reaction as described with PHGDH protein) and positive controls (diluted DMSO instead of test compound; reaction as described with buffer instead of PHGDH protein). Negative and positive control values are used for normalization.
IC50 values are calculated and analyzed in the MEGALAB IC50 application using a 4 parametric logistic model.

Sequence of PHGDH (O43175 2-533 limits assumed): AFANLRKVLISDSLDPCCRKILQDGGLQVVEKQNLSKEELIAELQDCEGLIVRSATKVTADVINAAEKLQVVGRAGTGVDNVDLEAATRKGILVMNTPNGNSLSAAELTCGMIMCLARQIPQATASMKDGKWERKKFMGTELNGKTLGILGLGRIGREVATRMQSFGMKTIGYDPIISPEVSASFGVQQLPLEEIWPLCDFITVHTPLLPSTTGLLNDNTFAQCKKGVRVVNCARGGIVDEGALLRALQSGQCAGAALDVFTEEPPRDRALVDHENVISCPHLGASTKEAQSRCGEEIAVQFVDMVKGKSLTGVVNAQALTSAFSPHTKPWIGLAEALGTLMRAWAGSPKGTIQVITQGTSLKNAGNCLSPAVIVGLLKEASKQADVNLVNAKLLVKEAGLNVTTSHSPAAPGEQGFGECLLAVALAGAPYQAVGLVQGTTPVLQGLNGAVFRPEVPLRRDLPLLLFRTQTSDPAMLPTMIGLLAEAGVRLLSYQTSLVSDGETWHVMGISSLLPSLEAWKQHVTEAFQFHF

Structure (SMILES): C#Cc1cc(Cl)c2cc(C(=O)NC(C)c3ccc(S(=O)(=O)CC(=O)OC)cc3)n(C)c2c1 (stereo not shown) [Example 01-008, methyl 2-(4-{1-[(4-chloro-6-ethynyl-1-methyl-1H-indol-2-yl)formamido]ethyl}benzenesulfonyl)acetate]
- IC50: 1690 nM

Structure (SMILES): COC(=O)CS(=O)(=O)c1ccc([C@@H](C)NC(=O)c2cc3c4ccccc4c(C)cc3n2C)cc1 [Example 01-010, methyl 2-{4-[(1R)-1-({3,5-dimethyl-3H-benzo[e]indol-2-yl}formamido)ethyl]benzenesulfonyl}acetate]
- IC50: 943 nM

Structure (SMILES): Cc1cc(Cl)c2cc(C(=O)N[C@H](C)c3ccc(S(=O)(=O)CC(=O)OC(C)(C)C)cc3)n(C)c2c1 [Example 01-014, tert-butyl 2-{4-[(1R)-1-[(4-chloro-1,6-dimethyl-1H-indol-2-yl)formamido]ethyl]benzenesulfonyl}acetate]
- IC50: 4250 nM

Structure (SMILES): COC(=O)CS(=O)(=O)c1ccc([C@@H](C)NC(=O)c2cc3c(Cl)cc(C)c(C)c3n2C)cc1 [Example 01-015, methyl 2-{4-[(1R)-1-[(4-chloro-1,6,7-trimethyl-1H-indol-2-yl)formamido]ethyl]benzenesulfonyl}acetate]
- IC50: 583 nM

Structure (SMILES): COC(=O)CS(=O)(=O)c1ccc([C@H](C)NC(=O)c2cc3c(Cl)c(Cl)c(C)cc3n2C)cc1 [Example 01-017, methyl 2-{4-[(1S)-1-[(4,5-dichloro-1,6-dimethyl-1H-indol-2-yl)formamido]ethyl]benzenesulfonyl}acetate]
- IC50: 6720 nM

Structure (SMILES): COC(=O)CS(=O)(=O)c1ccc([C@@H](C)NC(=O)c2cc3cc(Cl)ccc3n2C)cc1 [Example 01-019, methyl 2-{4-[(1R)-1-[(5-chloro-1-methyl-1H-indol-2-yl)formamido]ethyl]benzenesulfonyl}acetate]
- IC50: 2480 nM

Structure (SMILES): COC(=O)CS(=O)(=O)c1ccc(C(C)NC(=O)c2cc3c(Cl)cc(I)cc3n2C)cc1 (stereo not shown) [Example 01-020, methyl 2-(4-{1-[(4-chloro-6-iodo-1-methyl-1H-indol-2-yl)formamido]ethyl}benzenesulfonyl)acetate]
- IC50: 1790 nM

Structure (SMILES): Cc1cc2c(cc(C(=O)N[C@H](C)c3ccc(S(=O)(=O)CC(=O)O[13CH3])cc3)n2C)c(Cl)c1Cl [Example 01-022, (^13C)methyl 2-{4-[(1R)-1-[(4,5-dichloro-1,6-dimethyl-1H-indol-2-yl)formamido]ethyl]benzenesulfonyl}acetate]
- IC50: 414 nM

Structure (SMILES): Cc1cc(Cl)c2cc(C(=O)N[C@H](C)c3ccc(S(=O)(=O)CC(=O)OC(C)C)cc3)n(C)c2c1 [Example 01-024, propan-2-yl 2-{4-[(1R)-1-[(4-chloro-1,6-dimethyl-1H-indol-2-yl)formamido]ethyl]benzenesulfonyl}acetate]
- IC50: 3550 nM

Structure (SMILES): CCOC(=O)CS(=O)(=O)c1ccc([C@@H](C)NC(=O)c2cc3cc(Cl)c(-c4cnn(CCN5CCOCC5)c4)cc3n2C)cc1 [Example 01-025, ethyl 2-{4-[(1R)-1-[(5-chloro-1-methyl-6-{1-[2-(morpholin-4-yl)ethyl]-1H-pyrazol-4-yl}-1H-indol-2-yl)formamido]ethyl]benzenesulfonyl}acetate]
- IC50: 742 nM

Structure (SMILES): COC(=O)CS(=O)(=O)c1ccc(CNC(=O)c2cc3c(Cl)cc(C)cc3n2C)cc1 [Example 01-030, methyl 2-(4-{[(4-chloro-1,6-dimethyl-1H-indol-2-yl)formamido]methyl}benzenesulfonyl)acetate]
- IC50: 3390 nM

Structure (SMILES): Cc1cc(Cl)c2cc(C(=O)NCc3ccc(S(=O)(=O)CC(=O)OC(C)C)cc3)n(C)c2c1 [Example 01-031, propan-2-yl 2-(4-{[(4-chloro-1,6-dimethyl-1H-indol-2-yl)formamido]methyl}benzenesulfonyl)acetate]
- IC50: > 20000 nM

Structure (SMILES): CCOC(=O)CS(=O)(=O)c1ccc(CNC(=O)c2cc3c(Cl)cc(C)cc3n2C)cc1 [Example 01-032, ethyl 2-(4-{[(4-chloro-1,6-dimethyl-1H-indol-2-yl)formamido]methyl}benzenesulfonyl)acetate]
- IC50: 5940 nM
